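Exposure lasted 48 hours, with cells grown in 96-well plates and compounds tested at five concentrations. The concentration for 50% growth inhibition is given as GI50. TGI is the concentration that stops growth completely.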
Key:
Experiment in all cases: NCI-60 cell line screen, 48 h; in the data active = GI50 below about 0.43 µM; inactive = the rest
786-0 renal = test system: 786-0 renal
K-562 leukemia = test system: K-562 leukemia
NCI-H23 lung = test system: NCI-H23 lung
EKVX NSCLC = test system: EKVX NSCLC
NCI/ADR-RES ovarian = test system: NCI/ADR-RES ovarian
CCRF-CEM leukemia = test system: CCRF-CEM leukemia
RPMI-8226 leukemia = test system: RPMI-8226 leukemia
MALME-3M melanoma = test system: MALME-3M melanoma
HOP-92 NSCLC = test system: HOP-92 NSCLC
SK-MEL-28 melanoma = test system: SK-MEL-28 melanoma
LOX IMVI melanoma = test system: LOX IMVI melanoma
NCI-H226 lung = test system: NCI-H226 lung
SK-OV-3 ovarian = test system: SK-OV-3 ovarian
HCT-15 colon = test system: HCT-15 colon
MDA-MB-231 breast = test system: MDA-MB-231 breast
RXF 393 renal = test system: RXF 393 renal
KM12 colon = test system: KM12 colon
HT29 colon = test system: HT29 colon
A498 renal = test system: A498 renal
HOP-62 NSCLC = test system: HOP-62 NSCLC
CAKI-1 renal = test system: CAKI-1 renal
UACC-257 melanoma = test system: UACC-257 melanoma
ACHN renal = test system: ACHN renal
TK-10 renal = test system: TK-10 renal
SF-295 CNS = test system: SF-295 CNS
OVCAR-3 ovarian = test system: OVCAR-3 ovarian
U251 CNS = test system: U251 CNS
SK-MEL-5 melanoma = test system: SK-MEL-5 melanoma
PC-3 prostate = test system: PC-3 prostate
MCF7 breast = test system: MCF7 breast
T-47D breast = test system: T-47D breast
NCI-H460 lung = test system: NCI-H460 lung
SW-620 colon = test system: SW-620 colon
SNB-19 CNS = test system: SNB-19 CNS
SNB-75 CNS = test system: SNB-75 CNS
SN12C renal = test system: SN12C renal
A549 NSCLC = test system: A549 NSCLC
SF-268 CNS = test system: SF-268 CNS
COLO 205 colon = test system: COLO 205 colon
MOLT-4 leukemia = test system: MOLT-4 leukemia
NCI-H522 lung = test system: NCI-H522 lung
OVCAR-4 ovarian = test system: OVCAR-4 ovarian
BT-549 breast = test system: BT-549 breast
HS 578T breast = test system: HS 578T breast
HCC-2998 colon = test system: HCC-2998 colon
HCT-116 colon = test system: HCT-116 colon
M14 melanoma = test system: M14 melanoma
OVCAR-5 ovarian = test system: OVCAR-5 ovarian
UO-31 renal = test system: UO-31 renal
DU-145 prostate = test system: DU-145 prostate
MDA-MB-435 = test system: MDA-MB-435
OVCAR-8 ovarian = test system: OVCAR-8 ovarian
UACC-62 melanoma = test system: UACC-62 melanoma
SF-539 CNS = test system: SF-539 CNS
SK-MEL-2 melanoma = test system: SK-MEL-2 melanoma
IGROV1 ovarian = test system: IGROV1 ovarian
HL-60(TB) leukemia = test system: HL-60(TB) leukemia
SR leukemia = test system: SR leukemia
MDA-N = test system: MDA-N

COc1ccccc1/C=C/C(=O)/C=C/c1ccccc1OC
3.59 µM: TGI (786-0 renal)
8.45 µM: TGI (HL-60(TB) leukemia)
5.61 µM: TGI (MDA-MB-435)
3.33 µM: TGI (UO-31 renal)
4.95 µM: TGI (SK-MEL-2 melanoma)
3.01 µM: TGI (LOX IMVI melanoma)
3.5 µM: TGI (COLO 205 colon)
4.15 µM: TGI (DU-145 prostate)
5.04 µM: TGI (HOP-92 NSCLC) | TGI (HT29 colon)
4.35 µM: TGI (MALME-3M melanoma)
8.83 µM: TGI (TK-10 renal)
7.03 µM: TGI (PC-3 prostate)
2620 nM: TGI (HCT-116 colon)
3.68 µM: TGI (OVCAR-3 ovarian) | TGI (M14 melanoma)
3.26 µM: TGI (NCI-H522 lung)
39.2 µM: TGI (HS 578T breast)
2.87 µM: TGI (SK-MEL-5 melanoma)
3.24 µM: TGI (U251 CNS)
9.19 µM: TGI (CCRF-CEM leukemia)
4.57 µM: TGI (SF-268 CNS)
inactive: GI50 (786-0 renal) 1850 nM | GI50 (K-562 leukemia) 2830 nM | GI50 (NCI-H23 lung) 1750 nM | GI50 (EKVX NSCLC) 2420 nM | GI50 (NCI/ADR-RES ovarian) 2530 nM | GI50 (CCRF-CEM leukemia) 2040 nM | GI50 (RPMI-8226 leukemia) 2250 nM | GI50 (MALME-3M melanoma) 2110 nM | GI50 (HOP-92 NSCLC) 2100 nM | GI50 (SK-MEL-28 melanoma) 1670 nM | GI50 (LOX IMVI melanoma) 1530 nM | GI50 (NCI-H226 lung) 1710 nM | GI50 (SK-OV-3 ovarian) 2940 nM | GI50 (HCT-15 colon) 2270 nM | GI50 (MDA-MB-231 breast) 2970 nM | GI50 (RXF 393 renal) 1600 nM | GI50 (KM12 colon) 1570 nM | GI50 (HT29 colon) 2240 nM | GI50 (A498 renal) 1540 nM | GI50 (HOP-62 NSCLC) 3000 nM | GI50 (CAKI-1 renal) 3.16 µM | GI50 (UACC-257 melanoma) 1690 nM | GI50 (ACHN renal) 1910 nM | GI50 (TK-10 renal) 3.52 µM | GI50 (SF-295 CNS) 3.74 µM | GI50 (OVCAR-3 ovarian) 1680 nM | GI50 (U251 CNS) 1550 nM | GI50 (SK-MEL-5 melanoma) 1500 nM | GI50 (PC-3 prostate) 2260 nM | GI50 (T-47D breast) 1470 nM | GI50 (NCI-H460 lung) 2160 nM | GI50 (SW-620 colon) 1510 nM | GI50 (SNB-19 CNS) 1840 nM | GI50 (SNB-75 CNS) 2230 nM | GI50 (SN12C renal) 2060 nM | GI50 (A549 NSCLC) 2350 nM | GI50 (SF-268 CNS) 1920 nM | GI50 (COLO 205 colon) 1940 nM | GI50 (MOLT-4 leukemia) 2400 nM | GI50 (NCI-H522 lung) 1670 nM | GI50 (OVCAR-4 ovarian) 1510 nM | GI50 (BT-549 breast) 1600 nM | GI50 (HS 578T breast) 3.4 µM | GI50 (HCC-2998 colon) 1920 nM | GI50 (HCT-116 colon) 1270 nM | GI50 (M14 melanoma) 1650 nM | GI50 (OVCAR-5 ovarian) 3.16 µM | GI50 (UO-31 renal) 1830 nM | GI50 (DU-145 prostate) 1960 nM | GI50 (MDA-MB-435) 2040 nM | GI50 (OVCAR-8 ovarian) 2580 nM | GI50 (UACC-62 melanoma) 1650 nM | GI50 (SF-539 CNS) 2820 nM | GI50 (SK-MEL-2 melanoma) 2290 nM | GI50 (IGROV1 ovarian) 1600 nM | GI50 (HL-60(TB) leukemia) 2690 nM | GI50 (SR leukemia) 1180 nM
10.5 µM: TGI (HCT-15 colon) | TGI (SF-295 CNS)
6.33 µM: TGI (SF-539 CNS)
5.64 µM: TGI (NCI-H460 lung)
8.88 µM: TGI (OVCAR-8 ovarian)
3.81 µM: TGI (MCF7 breast)
3.06 µM: TGI (RXF 393 renal) | TGI (A498 renal)
3.92 µM: TGI (NCI-H23 lung)
3.72 µM: TGI (UACC-257 melanoma)
3.37 µM: TGI (SW-620 colon) | TGI (HCC-2998 colon)
7 µM: TGI (A549 NSCLC)
8.98 µM: TGI (NCI/ADR-RES ovarian)
8.66 µM: TGI (SK-OV-3 ovarian)
16.6 µM: TGI (OVCAR-4 ovarian)
8.75 µM: TGI (MDA-MB-231 breast)
3.2 µM: TGI (IGROV1 ovarian)
6.22 µM: TGI (EKVX NSCLC)
7.94 µM: TGI (CAKI-1 renal)
3.18 µM: TGI (SK-MEL-28 melanoma) | TGI (NCI-H226 lung)
3.41 µM: TGI (UACC-62 melanoma)
3.19 µM: TGI (BT-549 breast)
6.92 µM: TGI (HOP-62 NSCLC)
6.47 µM: TGI (OVCAR-5 ovarian)
3.49 µM: TGI (ACHN renal)
active: GI50 (MCF7 breast) 370 nM
8.43 µM: TGI (RPMI-8226 leukemia)
11.6 µM: TGI (SNB-75 CNS)
9.06 µM: TGI (MOLT-4 leukemia)
5.21 µM: TGI (SN12C renal)
8.4 µM: TGI (T-47D breast)
8.22 µM: TGI (SR leukemia)
12.4 µM: TGI (K-562 leukemia)
4.1 µM: TGI (SNB-19 CNS)
3.39 µM: TGI (KM12 colon)

COc1ccc(/C=N/NC(=O)c2cnc3[nH]c(=O)n(C)c(=O)c3c2)cc1
> 100000 nM: TGI (HCT-116 colon)
38.6 µM: TGI (SNB-75 CNS)
> 100 µM: TGI (786-0 renal) | TGI (K-562 leukemia) | TGI (NCI-H23 lung) | TGI (EKVX NSCLC) | TGI (NCI/ADR-RES ovarian) | TGI (CCRF-CEM leukemia) | TGI (RPMI-8226 leukemia) | TGI (MALME-3M melanoma) | TGI (SK-MEL-28 melanoma) | TGI (NCI-H226 lung) | TGI (SK-OV-3 ovarian) | TGI (HCT-15 colon) | TGI (RXF 393 renal) | TGI (KM12 colon) | TGI (HT29 colon) | TGI (HOP-62 NSCLC) | TGI (CAKI-1 renal) | TGI (UACC-257 melanoma) | TGI (ACHN renal) | TGI (TK-10 renal) | TGI (SF-295 CNS) | TGI (OVCAR-3 ovarian) | TGI (U251 CNS) | TGI (SK-MEL-5 melanoma) | TGI (PC-3 prostate) | TGI (MCF7 breast) | TGI (T-47D breast) | TGI (MDA-N) | TGI (NCI-H460 lung) | TGI (SW-620 colon) | TGI (SN12C renal) | TGI (A549 NSCLC) | TGI (SF-268 CNS) | TGI (COLO 205 colon) | TGI (MOLT-4 leukemia) | TGI (OVCAR-4 ovarian) | TGI (BT-549 breast) | TGI (HS 578T breast) | TGI (HCC-2998 colon) | TGI (M14 melanoma) | TGI (OVCAR-5 ovarian) | TGI (UO-31 renal) | TGI (DU-145 prostate) | TGI (MDA-MB-435) | TGI (OVCAR-8 ovarian) | TGI (UACC-62 melanoma) | TGI (SK-MEL-2 melanoma) | TGI (IGROV1 ovarian)
98.8 µM: TGI (SNB-19 CNS)
86.8 µM: TGI (MDA-MB-231 breast)

c1ccc(C2=NCCc3cc4c(cc32)OCO4)cc1
> 100 µM: TGI (786-0 renal) | TGI (NCI-H23 lung) | TGI (EKVX NSCLC) | TGI (NCI/ADR-RES ovarian) | TGI (MALME-3M melanoma) | TGI (SK-MEL-28 melanoma) | TGI (LOX IMVI melanoma) | TGI (SK-OV-3 ovarian) | TGI (MDA-MB-231 breast) | TGI (RXF 393 renal) | TGI (KM12 colon) | TGI (A498 renal) | TGI (HOP-62 NSCLC) | TGI (CAKI-1 renal) | TGI (UACC-257 melanoma) | TGI (TK-10 renal) | TGI (SF-295 CNS) | TGI (OVCAR-3 ovarian) | TGI (U251 CNS) | TGI (SK-MEL-5 melanoma) | TGI (PC-3 prostate) | TGI (MCF7 breast) | TGI (T-47D breast) | TGI (MDA-N) | TGI (SW-620 colon) | TGI (SNB-19 CNS) | TGI (SN12C renal) | TGI (A549 NSCLC) | TGI (SF-268 CNS) | TGI (COLO 205 colon) | TGI (NCI-H522 lung) | TGI (OVCAR-4 ovarian) | TGI (HS 578T breast) | TGI (HCC-2998 colon) | TGI (M14 melanoma) | TGI (OVCAR-5 ovarian) | TGI (DU-145 prostate) | TGI (MDA-MB-435) | TGI (OVCAR-8 ovarian) | TGI (UACC-62 melanoma) | TGI (SF-539 CNS) | TGI (SK-MEL-2 melanoma) | TGI (IGROV1 ovarian) | TGI (SR leukemia)
